Legend:
[1] = adults with leukemia, with mitoxantrone, etoposide, cytarabine; cited from earlier work
[2] = Valspodar blood concentrations by radioimmunoassay; format: in vivo, pediatric patients; conditions: at some point during the infusion
[3] = not given; remark: listed apart in the source
[4] = during valspodar infusion, resolved after completion, all dose levels

decrease of clearance when combined with valspodar (day 4 with valspodar versus day 1 pre-valspodar) [%]	V1 (volume of the central compartment) (in vivo) [L]	V2 (volume in the peripheral compartment) (in vivo) [L]	Structure (SMILES)	CL0 (baseline clearance) (in vivo) [L/h]	Q (inter-compartmental clearance) (in vivo) [L/h]	maximum tolerated dose (MTD) in adults [1] [mg/kg/day]	valspodar concentration achieved in all patients [2]	patients with cerebellar toxicity (ataxia or dizziness) ([3]; all dose levels, 21 evaluable, one grade 3, two grade 2, two grade 1)	patients with transient hyperbilirubinemia ([3]; all dose levels, evaluable for toxicity)	transient hyperbilirubinemia, median maximum [3, 4] [mg/dL]	transient hyperbilirubinemia, range of maximum [3, 4] [mg/dL]	patients with valspodar infusion-related transaminase elevations ([3]; one grade 1, two grade 2, one grade 3, self-resolved)
60	3.58	3.82	COc1cc([C@@H]2c3cc4c(cc3[C@@H](O[C@@H]3O[C@@H]5CO[C@@H](C)O[C@H]5[C@H](O)[C@H]3O)[C@H]3COC(=O)[C@H]23)OCO4)cc(OC)c1O [etoposide]	1.52	2.38							
			O=C1c2c(O)ccc(O)c2C(=O)c2c(NCCNCCO)ccc(NCCNCCO)c21 [mitoxantrone]	16.4	8.13							
			C/C=C/C[C@@H](C)C(=O)[C@H]1C(=O)N[C@@H](C(C)C)C(=O)N(C)CC(=O)N(C)[C@@H](CC(C)C)C(=O)N[C@@H](C(C)C)C(=O)N(C)[C@@H](CC(C)C)C(=O)N[C@@H](C)C(=O)N[C@H](C)C(=O)N(C)[C@@H](CC(C)C)C(=O)N(C)[C@@H](CC(C)C)C(=O)N(C)[C@@H](C(C)C)C(=O)N1C [valspodar, Valspodar]			10	1,000 ng/mL	five	16 of 21	2	0.8 to 6.6	Four
